From patent US20220098203A1 (priority 2018, published 2022) come the findings set out here.

Some results are limits rather than exact numbers.

The target in one test is T1, MAT2A homodimer (Homo sapiens, UniProt P31153).
T1 construct: inferred from the Ni sepharose purification and imidazole elution; made in house; host or cells: SF9 insect cells, recombinant baculovirus (Bac to Bac, pFASTBAC1)
T1 sequence (P31153 whole entry): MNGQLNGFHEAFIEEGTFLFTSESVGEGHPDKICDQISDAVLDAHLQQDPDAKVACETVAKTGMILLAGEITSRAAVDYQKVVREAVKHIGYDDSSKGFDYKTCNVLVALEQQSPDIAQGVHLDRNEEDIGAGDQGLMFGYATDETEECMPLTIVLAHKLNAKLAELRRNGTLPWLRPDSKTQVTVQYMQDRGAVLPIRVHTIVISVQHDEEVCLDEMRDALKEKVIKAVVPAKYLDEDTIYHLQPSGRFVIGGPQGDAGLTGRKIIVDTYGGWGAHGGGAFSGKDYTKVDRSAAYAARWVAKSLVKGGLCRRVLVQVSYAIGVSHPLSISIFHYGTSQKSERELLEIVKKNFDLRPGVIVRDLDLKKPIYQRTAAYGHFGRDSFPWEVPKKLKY
Briefly: MAT2A biochemical assay (liberated phosphate, PiColorLock Gold). As to conditions: Table 5a; MAT2A biochemical assay; read-out: Enzyme Inhibition. As for the experimental part:
Mat2A protein was expressed by recombinant baculovirus in SF9 infected cells using the Bac to Bac system cloned into the pFASTBAC1 vector (Invitrogen, Carlsbad, Calif.). Recombinant MAT2A was isolated from the cell lysate of 150 g of infected cells using HP Ni sepharose column chromatography. Recombinant MAT2A homodimer was eluted with 250 and 500 mM imidazole, and fractions containing MAT2A were identified by sodium dodecyl sulfate polyacrylamide gel electrophoresis and pooled.
Test compound was prepared in 100% dimethyl sulfoxide (DMSO) at 50× the desired final concentration. A 1 μL volume of compound dilution was added to 40 μL of enzyme dilution and the mixture was allowed to equilibrate for 60 minutes at 25° C. The enzymatic assay was initiated by the addition of 10 μL of substrate mix (500 μM ATP, pH 7.0, 400 μM L-methionine in 1× assay buffer), and the mixture was incubated for a further 60 minutes at 25° C. The reaction was halted and the liberated phosphate released by the enzyme in stoichiometric amounts by the production of S-adenosyl methionine (SAM) was measured using the PiColorLock Gold kit (Innova Biosciences, UK). Absolute product amounts were determined by comparison to a standard curve of potassium phosphate buffer, pH 8.0.
As to `COc1ccc(N2Cc3cnc(SC)nc3N(c3ccc(C)cc3)C2=O)cc1` [Example 244, 3-(4-methoxyphenyl)-7-(methylthio)-1-(p-tolyl)-3,4-dihydropyrimido[4,5-d]pyrimidin-2(1H)-one], the IC50 was in the range of 1000 to 10000 nM. As for `COc1ccc(N2Cc3cnc(NCC(F)(F)F)nc3N(c3ccc(Cl)c(Cl)c3)C2=O)cc1` [Example 245, 1-(3,4-dichlorophenyl)-3-(4-methoxyphenyl)-7-((2,2,2-trifluoroethyl)amino)-3,4-dihydropyrimido[4,5-d]pyrimidin-2(1H)-one], the IC50 lay within 1000 to 10000 nM. `COc1ccc(N2C(=O)N(c3ccc4nn(C)cc4c3)Cc3cnc(NC4CCCCC4)nc32)cc1` [Example 248, 7-(cyclohexylamino)-1-(4-methoxyphenyl)-3-(2-methyl-2H-indazol-5-yl)-3,4-dihydropyrimido[4,5-d]pyrimidin-2(1H)-one]: the IC50 was in the range of 1000 to 10000 nM. Still for that read-out and setting: with `COc1ccc(N2Cc3cnc(NCC(F)(F)F)nc3N(c3ccc(O)cc3)C2=O)cc1` [Example 249, 1-(4-hydroxyphenyl)-3-(4-methoxyphenyl)-7-((2,2,2-trifluoroethyl)amino)-3,4-dihydropyrimido[4,5-d]pyrimidin-2(1H)-one] the figure was 100 to 1000 nM; with `COc1ccc(N2Cc3cnc(NCC(F)(F)F)nc3N(c3ccc(C#N)cc3)C2=O)cc1` [Example 251, 4-(3-(4-methoxyphenyl)-2-oxo-7-((2,2,2-trifluoroethyl)amino)-3,4-dihydropyrimido[4,5-d]pyrimidin-1(2H)-yl)benzonitrile], 1000 to 10000 nM. `COc1ccc(N2Cc3cnc(NCC(F)(F)F)nc3N(c3ccc4c(c3)CCO4)C2=O)cc1` [Example 253, 1-(2,3-dihydrobenzofuran-5-yl)-3-(4-methoxyphenyl)-7-((2,2,2-trifluoroethyl)amino)-3,4-dihydropyrimido[4,5-d]pyrimidin2(1H)-one]: the IC50 fell in the range of 100 to 1000 nM. In the case of `COc1ccc(N2Cc3cnc(NCC(F)(F)F)nc3N(c3ccc4sccc4c3)C2=O)cc1` [Example 254, 1-(benzo[b]thiophen-5-yl)-3-(4-methoxyphenyl)-7-((2,2,2-trifluoroethyl)amino)-3,4-dihydropyrimido[4,5-d]pyrimidin2(1H)-one], the IC50 lay in the range of 100 to 1000 nM. As for `COc1ccc(N2Cc3cnc(NCC(F)(F)F)nc3N(c3ccc(OC(F)(F)F)cc3)C2=O)cc1` [Example 256, 3-(4-methoxyphenyl)-7-((2,2,2-trifluoroethyl)amino)-1-(4-(trifluoromethoxy)phenyl)-3,4-dihydropyrimido[4,5-d]pyrimidin-2(1H)-one], the IC50 was in the range of 100 to 1000 nM.

Regarding `COc1ccc(N2Cc3cnc(NCC(F)(F)F)nc3N(c3ccc(OC)cn3)C2=O)cc1` [Example 257, 3-(4-Methoxyphenyl)-1-(5-methoxypyridin-2-yl)-7-(2,2,2-trifluoroethylamino)-3,4-dihydropyrimido[4,5-d]pyrimidin-2(1H)-one], the IC50 is 100 to 1000 nM. Still for that read-out and setting: with `COc1ccc(N2Cc3cnc(NCC(F)(F)F)nc3N([C@H]3CC[C@H](OC)CC3)C2=O)cc1` [Example 258] the figure was 100 to 1000 nM; with `COc1ccc(N2Cc3cnc(NCC(F)(F)F)nc3N(c3ccc(OC(F)F)nc3)C2=O)cc1` [Example 259], 100 to 1000 nM; with `COc1ccc(N2Cc3cnc(NCC(F)(F)F)nc3N(c3ccc4nccn4c3)C2=O)cc1` [Example 260], 1000 to 10000 nM. On the same count and under the same terms, with `COc1ccc(-n2c(=O)c3cnc(NCC(F)(F)F)nc3n(-c3ccc(O)cc3)c2=O)cc1` [Example 262, 1-(4-hydroxyphenyl)-3-(4-methoxyphenyl)-7-((2,2,2-trifluoroethyl)amino)pyrimido[4,5-d]pyrimidine-2,4(1H,3H)-dione] the figure was 100 to 1000 nM; with `Cn1cc2cc(N3Cc4cnc(NCC(F)(F)F)nc4N(c4ccc(Cl)cc4)C3=O)ccc2n1` [Example 263, 1-(4-chlorophenyl)-3-(2-methyl-2H-indazol-5-yl)-7-((2,2,2-trifluoroethyl)amino)-3,4-dihydropyrimido[4,5-d]pyrimidin-2(1H)-one], less than 100 nM; with `COc1ccc(N2Cc3cnc(NCC4CC4)nc3N(c3ccc(O)cc3)C2=O)cc1` [Example 265], 1000 to 10000 nM. For `COc1ccc(N2Cc3cnc(NCC4CC4)nc3N(c3ccncc3)C2=O)cc1` [Example 266], the IC50 was 1000 to 10000 nM. `COc1ccc(N2Cc3cnc(NCC4CC4)nc3N(c3ccc(OC)cc3)C2=O)cc1` [Example 267]: the IC50 was 100 to 1000 nM. For `COc1ccc(N2Cc3cnc(NCC(F)(F)F)nc3N(c3ccc(C(N)=O)cc3)C2=O)cc1` [Example 276, 4-(3-(4-methoxyphenyl)-2-oxo-7-((2,2,2-trifluoroethyl)amino)-3,4-dihydropyrimido[4,5-d]pyrimidin-1(2H)-yl)benzamide], the IC50 was in the range of 100 to 1000 nM. On to `CNC(=O)c1ccc(N2C(=O)N(c3ccc(OC)cc3)Cc3cnc(NCC(F)(F)F)nc32)cc1` [Example 277, 4-(3-(4-methoxyphenyl)-2-oxo-7-((2,2,2-trifluoroethyl)amino)-3,4-dihydropyrimido[4,5-d]pyrimidin-1(2H)-yl)-N-methylbenzamide], for which the IC50 lay in the range of 1000 to 10000 nM.

Turning to `COc1ccc(N2Cc3cnc(NCC(F)(F)F)nc3N(c3ccc(C4(O)CC4)cc3)C2=O)cc1` [Example 278, 1-(4-(1-hydroxycyclopropyl)phenyl)-3-(4-methoxyphenyl)-7-((2,2,2-trifluoroethyl)amino)-3,4-dihydropyrimido[4,5-d]pyrimidin-2(1H)-one], the IC50 lay in the range of 100 to 1000 nM. Regarding `COc1ccc(N2Cc3cnc(NCC(F)(F)F)nc3N(c3ccc(-c4ccc[nH]c4=O)cc3)C2=O)cc1` [Example 279, 3-(4-methoxyphenyl)-1-(4-(2-oxo-1,2-dihydropyridin-3-yl)phenyl)-7-((2,2,2-trifluoroethyl)amino)-3,4-dihydropyrimido[4,5-d]pyrimidin-2(1H)-one], the IC50 fell in the range of 100 to 1000 nM. Consider `COc1ccc(N2Cc3cnc(NCC(F)(F)F)nc3N(c3ccc(-c4cc[nH]c4)cc3)C2=O)cc1` [Example 280, 1-(4-(1H-pyrrol-3-yl)phenyl)-3-(4-methoxyphenyl)-7-((2,2,2-trifluoroethyl)amino)-3,4-dihydropyrimido[4,5-d]pyrimidin-2(1H)-one], for which the IC50 lay within 100 to 1000 nM.

For `COc1ccc(N2Cc3cnc(NCC(F)(F)F)nc3N(c3ccc(C4CC4O)cc3)C2=O)cc1` (centres unmarked) [Example 281, 1-(4-(2-hydroxycyclopropyl)phenyl)-3-(4-methoxyphenyl)-7-((2,2,2-trifluoroethyl)amino)-3,4-dihydropyrimido[4,5-d]pyrimidin-2(1H)-one], the IC50 lay within 100 to 1000 nM. On to `Cn1cc2cc(N3Cc4cc(Cl)c(OCC(F)F)cc4N(c4ccc(OC(F)F)cc4)C3=O)ccc2n1` [Example 284, 6-chloro-7-(2,2-difluoroethoxy)-1-(4-(difluoromethoxy)phenyl)-3-(2-methyl-2H-indazol-5-yl)-3,4-dihydroquinazolin-2(1H)-one], for which the IC50 was in the range of 100 to 1000 nM. For `[2H]C([2H])([2H])Oc1ccc(N2C(=O)N(c3ccc4nn(C)cc4c3)C(C)c3ccc(OCC(F)F)nc32)cc1` (centres unmarked) [Example 286, 7-(2,2-difluoroethoxy)-1-(4-(methoxy-d3)phenyl)-4-methyl-3-(2-methyl-2H-indazol-5-yl)-3,4-dihydropyrido[2,3-d]pyrimidin-2(1H)-one], the IC50 lay in the range of 100 to 1000 nM. In the case of `CCOc1cc2c(nn1)CN(c1ccc3nn(C)cc3c1)C(=O)N2c1ccc(OC(F)F)cc1` [Example 292, 5-(4-(difluoromethoxy)phenyl)-3-ethoxy-7-(2-methyl-2H-indazol-5-yl)-7,8-dihydropyrimido[5,4-c]pyridazin-6(5H)-one], the IC50 was 1000 to 10000 nM.

`Cn1cc2cc(N3Cc4nnc(NCC(F)(F)F)cc4N(c4ccc(OC(F)F)cc4)C3=O)ccc2n1` [Example 293]: the IC50 lay in the range of 100 to 1000 nM.

As for `CCOc1cc2c(cn1)CN(c1ccc3nn(C)cc3c1)C(=O)N2c1ccc(Cl)cc1` [Example 418, 1-(4-chlorophenyl)-7-ethoxy-3-(2-methyl-2H-indazol-5-yl)-3,4-dihydropyrido[4,3-d]pyrimidin-2(1H)-one], the IC50 is 100 to 1000 nM. `COC1CCC(N2C(=O)N(c3ccc4nn(C)cc4c3)Cc3ccc(OCC(F)F)nc32)CC1` (centres unmarked) [Example 427, 7-(2,2-difluoroethoxy)-1-(4-methoxycyclohexyl)-3-(2-methyl-2H-indazol-5-yl)-1H,2H,3H,4H-pyrido[2,3-d]pyrimidin-2-one]: the IC50 lay within 1000 to 10000 nM. `Cc1ccc(N2C(=O)N(c3ccc4nn(C)cc4c3)Cc3cnc(NCC(F)(F)F)nc32)cn1` [Example 433, 3-(2-methyl-2H-indazol-5-yl)-1-(6-methylpyridin-3-yl)-7-((2,2,2-trifluoroethyl)amino)-3,4-dihydropyrimido[4,5-d]pyrimidin-2(1H)-one]: the IC50 was less than 100 nM. For the molecule `[2H]C([2H])([2H])Oc1ccc(N2C(=O)N(c3ccc4nc(C)n(C)c4c3)Cc3c(C)nc(NCC(F)(F)F)nc32)cc1` [Example 435, 3-(1,2-dimethyl-1H-benzo[d]imidazol-6-yl)-1-(4-(methoxy-d3)phenyl)-5-methyl-7-((2,2,2-trifluoroethyl)amino)-3,4-dihydropyrimido[4,5-d]pyrimidin-2(1H)-one], the IC50 was less than 100 nM.

The same test, now with this note: Table 5a; given as a bound, not a class symbol; read-out: Enzyme Inhibition.
Consider `CCOc1ccc(N2C(=O)N(c3ccc4nn(C)cc4c3)Cc3nnc(OCC)cc32)cc1` [Example 438], for which the IC50 is greater than 10000 nM.
